{"source": "PubChem BioAssay (NCI)", "experiment_in_all_cases": "DTP human tumour cell line panel, 48 h", "key": {"[1]": {"test_system": "HL-60(TB) leukemia"}, "[2]": {"test_system": "SK-OV-3 ovarian"}, "[3]": {"test_system": "NCI-H522 lung"}, "[4]": {"test_system": "OVCAR-5 ovarian"}, "[5]": {"test_system": "HCT-116 colon"}, "[6]": {"test_system": "SF-295 CNS"}, "[7]": {"test_system": "MCF7 breast"}, "[8]": {"test_system": "ACHN renal"}, "[9]": {"test_system": "SN12C renal"}, "[10]": {"test_system": "M14 melanoma"}, "[11]": {"test_system": "CAKI-1 renal"}, "[12]": {"test_system": "HCC-2998 colon"}, "[13]": {"test_system": "SF-539 CNS"}, "[14]": {"test_system": "SR leukemia"}, "[15]": {"test_system": "BT-549 breast"}, "[16]": {"test_system": "IGROV1 ovarian"}, "[17]": {"test_system": "LOX IMVI melanoma"}, "[18]": {"test_system": "T-47D breast"}, "[19]": {"test_system": "PC-3 prostate"}, "[20]": {"test_system": "MALME-3M melanoma"}, "[21]": {"test_system": "DU-145 prostate"}, "[22]": {"test_system": "HT29 colon"}, "[23]": {"test_system": "MOLT-4 leukemia"}, "[24]": {"test_system": "UO-31 renal"}, "[25]": {"test_system": "OVCAR-4 ovarian"}, "[26]": {"test_system": "MDA-MB-231 breast"}, "[27]": {"test_system": "OVCAR-8 ovarian"}, "[28]": {"test_system": "RXF 393 renal"}, "[29]": {"test_system": "SNB-19 CNS"}, "[30]": {"test_system": "NCI-H460 lung"}, "[31]": {"test_system": "SW-620 colon"}, "[32]": {"test_system": "EKVX NSCLC"}, "[33]": {"test_system": "U251 CNS"}, "[34]": {"test_system": "HOP-92 NSCLC"}, "[35]": {"test_system": "MDA-MB-435"}, "[36]": {"test_system": "COLO 205 colon"}, "[37]": {"test_system": "OVCAR-3 ovarian"}, "[38]": {"test_system": "HOP-62 NSCLC"}, "[39]": {"test_system": "K-562 leukemia"}, "[40]": {"test_system": "SK-MEL-5 melanoma"}, "[41]": {"test_system": "HCT-15 colon"}, "[42]": {"test_system": "SF-268 CNS"}, "[43]": {"test_system": "786-0 renal"}, "[44]": {"test_system": "NCI-H23 lung"}, "[45]": {"test_system": "NCI/ADR-RES ovarian"}, "[46]": {"test_system": "A549 NSCLC"}, "[47]": {"test_system": "TK-10 renal"}, "[48]": {"test_system": "SK-MEL-28 melanoma"}, "[49]": {"test_system": "SNB-75 CNS"}, "[50]": {"test_system": "RPMI-8226 leukemia"}, "[51]": {"test_system": "HS 578T breast"}, "[52]": {"test_system": "KM12 colon"}, "[53]": {"test_system": "NCI-H226 lung"}, "[54]": {"test_system": "MDA-N"}}, "note": "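Test compounds were applied to cells in 96-well plates for 48 hours at 5 doses. TGI is the concentration that stops growth completely.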", "data": [{"molecule": "CC(=O)OCC1OC(n2c(-c3ccc(Cl)cc3)cc(-c3ccccc3)c(C#N)c2=S)C(OC(C)=O)C(OC(C)=O)C1OC(C)=O", "note": "(centres undefined)", "values": [{"measurement": "TGI", "setting": "[1]", "value": 17.4, "unit": "µM"}, {"measurement": "TGI", "setting": "[2]", "value": 25.2, "unit": "µM"}, {"measurement": "TGI", "setting": "[3]", "value": 60.1, "unit": "µM"}, {"measurement": "TGI", "setting": "[4]", "value": 35, "unit": "µM"}, {"measurement": "TGI", "setting": "[5]", "value": 18.8, "unit": "µM"}, {"measurement": "TGI", "setting": "[6]", "value": 23.6, "unit": "µM"}, {"measurement": "TGI", "setting": "[7]", "value": 67.8, "unit": "µM"}, {"measurement": "TGI", "setting": "[8]", "value": 26.2, "unit": "µM"}, {"measurement": "TGI", "setting": "[9]", "value": 26.3, "unit": "µM"}, {"measurement": "TGI", "setting": "[10]", "value": 16.4, "unit": "µM"}, {"measurement": "TGI", "setting": "[11]", "value": 26.9, "unit": "µM"}, {"measurement": "TGI", "setting": "[12]", "value": 34.7, "unit": "µM"}, {"measurement": "TGI", "setting": "[13]", "value": 14.6, "unit": "µM"}, {"measurement": "TGI", "setting": "[14]", "value": 53, "unit": "µM"}, {"measurement": "TGI", "setting": "[15]", "value": 17.8, "unit": "µM"}, {"measurement": "TGI", "setting": "[16]", "value": 25.8, "unit": "µM"}, {"measurement": "TGI", "setting": "[17]", "value": 17.8, "unit": "µM"}, {"measurement": "TGI", "setting": "[18]", "value": 39.5, "unit": "µM"}, {"measurement": "TGI", "setting": "[19]", "value": 23.3, "unit": "µM"}, {"measurement": "TGI", "setting": "[20]", "value": 7.71, "unit": "µM"}, {"measurement": "TGI", "setting": "[21]", "value": 35.6, "unit": "µM"}, {"measurement": "TGI", "setting": "[22]", "value": 21.1, "unit": "µM"}, {"measurement": "TGI", "setting": "[23]", "value": 85.9, "unit": "µM"}, {"measurement": "TGI", "setting": "[24]", "value": 40.1, "unit": "µM"}, {"measurement": "TGI", "setting": "[25]", "value": 3.3, "unit": "µM"}, {"measurement": "TGI", "setting": "[26]", "value": 15.7, "unit": "µM"}, {"measurement": "TGI", "setting": "[27]", "value": 23, "unit": "µM"}, {"measurement": "TGI", "setting": "[28]", "value": 26, "unit": "µM"}, {"measurement": "TGI", "setting": "[29]", "value": 20.9, "unit": "µM"}, {"measurement": "TGI", "setting": "[30]", "value": 17.9, "unit": "µM"}, {"measurement": "TGI", "setting": "[31]", "value": 14.7, "unit": "µM"}, {"measurement": "TGI", "setting": "[32]", "value": 31.9, "unit": "µM"}, {"measurement": "TGI", "setting": "[33]", "value": 20.6, "unit": "µM"}, {"measurement": "TGI", "setting": "[34]", "value": 40.8, "unit": "µM"}, {"measurement": "TGI", "setting": "[35]", "value": 25.2, "unit": "µM"}, {"measurement": "TGI", "setting": "[36]", "value": 33, "unit": "µM"}, {"measurement": "TGI", "setting": "[37]", "value": 22.4, "unit": "µM"}, {"measurement": "TGI", "setting": "[38]", "value": 20.5, "unit": "µM"}, {"measurement": "TGI", "setting": "[39]", "value": "> 100", "unit": "µM"}, {"measurement": "TGI", "setting": "[40]", "value": 23.5, "unit": "µM"}, {"measurement": "TGI", "setting": "[41]", "value": "> 100", "unit": "µM"}, {"measurement": "TGI", "setting": "[42]", "value": 25.6, "unit": "µM"}, {"measurement": "TGI", "setting": "[43]", "value": 24.6, "unit": "µM"}, {"measurement": "TGI", "setting": "[44]", "value": 27.2, "unit": "µM"}, {"measurement": "TGI", "setting": "[45]", "value": 21, "unit": "µM"}, {"measurement": "TGI", "setting": "[46]", "value": 27.9, "unit": "µM"}, {"measurement": "TGI", "setting": "[47]", "value": 42.2, "unit": "µM"}, {"measurement": "TGI", "setting": "[48]", "value": 23.4, "unit": "µM"}, {"measurement": "TGI", "setting": "[49]", "value": 20.8, "unit": "µM"}, {"measurement": "TGI", "setting": "[50]", "value": 43.3, "unit": "µM"}, {"measurement": "TGI", "setting": "[51]", "value": 10.5, "unit": "µM"}, {"measurement": "TGI", "setting": "[52]", "value": 48.7, "unit": "µM"}, {"measurement": "TGI", "setting": "[53]", "value": 12, "unit": "µM"}, {"measurement": "TGI", "setting": "[54]", "value": 24.3, "unit": "µM"}]}]}
